According to PMC10610289, “Novel Baicalein-Derived Inhibitors of Plasmodium falciparum” (Pathogens, 2023):
pIC50: −log10 of the molar value.

Assays:
[1] = system: Dd2 ELQ300 (PfcytB Ile22Leu); assay: Cross-resistance panel, Dd2 ELQ300; assay type: cell-based, Plasmodium falciparum
Method: (§1) Parasite lines used in the study were P. falciparum 3D7 (Pf3D7 Chloroquine-sensitive) and Plasmodium falciparum K1 (PfK1 Chloroquine-resistant) sourced from the Malaria Research and Reference Reagent Resource Center (MR4), ATCC, Manassas, VA, USA. FNDR-10132 was tested against a cross-resistance panel at Swiss TPH, Allschwil, Switzerland.

[2] = system: P. falciparum male gametocytes; assay: P. falciparum dual gamete formation assay (PfDGFA), male; assay type: cell-based; conditions: Plasmodium falciparum, read-out: DGF Assay—Inhibition, male
Method: The FNDR-10132 was evaluated in a male and female gametocyte functional viability assay by following the procedure described in Ruecker et al..

Dd2 DSM265 (Pfdhodh) = assay: Cross-resistance panel, Dd2 DSM265; assay type: cell-based, Plasmodium falciparum
Method: as §1

Vero cells = assay: Cytotoxicity assay against Vero cell line; assay type: cell-based; conditions: 72 h, resazurin (CC50)
Method: Vero cells were initially washed with PBS and trypsinized, and a 1 × 10^5 cells/mL suspension was prepared. A total of 100 µL of a cell suspension was distributed to each well of the 96-well microtiter plates and allowed to adhere overnight. The next day, serial dilutions of selected test compounds were made in the plates and incubated for 72 h. After 72 h, a ten-microliter resazurin solution (12.5 mg/100 mL PBS) was added to each well. After 3 h, plates were read using a fluorescence reader (Biotek) at an excitation wavelength of 530 nm and an emission wavelength of 590 nm (Sperandeo and Brun, 2003). The MS-EXEL template determined the cytotoxic concentration (CC50) for selected compounds.

[3] = system: Plasmodium yoelii N67 (Chloroquine-resistant); assay: In vivo antimalarial assay in Swiss mice; conditions: 100 mg/kg ×4 days, oral
Method: All animal experiments were performed following the institutional animal ethics committee (IAEC). Laboratory-bred Swiss albino mice (both male and female) weighing 20–22 g were obtained from breeding colonies at the National Laboratory Animal Centre at the CSIR-CDRI, Lucknow, with due permission from the animal ethics committee (IAEC/2018/16/Renew-1/Dated-05/04/2019). The rodent malaria parasite Plasmodium yoelii N67 (chloroquine-resistant) was used for the study. This parasite was maintained by serial passage in healthy Swiss mice of either sex.
Swiss mice were inoculated with a standard inoculum of 1 × 106 P. yoelii N67 parasitized erythrocytes intraperitoneally. The 22-gauge hypodermic needle was used to infect the mice and was injected with a 0.5 mL (infected RBCs) volume. Treatment was initiated from day 0 to day 3 (total 4 days) once daily, and different routes of administration, viz., oral, intravenous, intraperitoneally, and subcutaneous, were used. For in vivo evaluation, compounds were dissolved in 300 µL of DMSO and were made up with MilliQ. The efficacy of in vitro active compounds was evaluated for in vivo activity at different doses, and the desired daily dose was administered in a 0.2 mL volume. A drop of blood from the mice’s tails was collected regularly throughout the experiment for parasitemia estimation. The group’s mean value was calculated using the percentage suppression of parasitemia compared with the untreated control group.

THP-1 = assay: Cytotoxicity in THP-1; assay type: cell-based
Excerpt: (§2) Table 5 The compound FNDR-10132 progression profile. | column: FNDR-10132

[4] = Microsomal stability assay; assay type: in vitro ADME, mouse; conditions: 37 °C
Method: Dipotassium hydrogen phosphate, Potassium dihydrogen phosphate, and formic acid were obtained from Merck, Rahway, NJ, USA. Methanol–acetonitrile was procured from Biosolve Chimie, Dieuze, France. Mouse liver microsomes, 20 mg/mL, were received from a third-party vendor in India. Imipramine HCl (catalog no. I0971) and Carbamazepine (catalog no. O0363) were procured from TCI, Gurugram, India. ß-NADPH (product code-99197) was procured from Sisco Research Laboratories, Mumbai, India.
The in vitro metabolic stability was determined in mouse liver microsomes. To prepare a mouse liver microsomes (MLM) homogenate, 100 µL of microsomes was resuspended in 100 mM phosphate buffer (0.607 g K2HPO4 and 0.212 g KH2PO4 dissolved in 50 mL of de-ionized water), achieving a working concentration of 0.625 mg/mL. Positive control (Imipramine) and test compounds (FNDR-10132, 10136, 10139, and 10999) were spiked individually into the MLM homogenate at a final concentration of 1 µm. To pre-incubate, they were placed in a water bath at 37 °C for 5 min. At least 30 µL was collected in triplicates (0 min samples), and the reaction was quenched using 90 µL of acetonitrile, which contained 500 ng/mL of Carbamazepine as an internal standard. Nicotinamide Adenine Dinucleotide Phosphate (NADPH) in phosphate buffer was added to the remaining MLM at a 1 mM final concentration and further incubated at 37 °C. At the indicated time intervals, 30 µL aliquots were sampled in triplicates, and the reaction was quenched with acetonitrile containing Carbamazepine as the internal standard. The samples were centrifugated for 10 min at 13,000 rpm, and the supernatant was separated for further analysis.
The analytical method for microsomal stability and protein binding assay is as follows: Chromatographic elution was achieved following isocratic flow on an X-Terra MS C18 50 × 4.6 mm, 2.5 µm, Waters, USA, maintained at 40 °C. The mobile phase contained aqueous 0.1% formic acid in water in solvent A and acetonitrile acidified with 0.1% formic acid in solvent B delivered at 0.300 mL/min. The flow was 15% from solvent A and 85% from solvent B for 4.5 min. A total of 7 μL of the sample was injected for the assay. […] Detection was performed through multiple reaction monitoring (MRM). The ion transitions are as follows: Imipramine, FNDR-10132, FNDR-10136, FNDR-10139, FNDR-10999, and IS at m/z 281.1→86.0, 355.2→115.1, 354.0→298.0, 350.0→186.1, 349→305.2, and m/z 237.0→194.0, respectively. An optimized cone voltage and collision energy were used to ionize the compounds. The MS parameters follow as follows: cone gas flow 50 (L/h); ion source temperature 150 °C; desolvation gas flow 900 (L/h); desolvation temperature 400 °C; and collision gas flow 0.10 (mL/min).

Plasma stability = assay type: in vitro ADME
Excerpt: as §2

Dd2 (wt) = assay: Cross-resistance panel, Dd2 wt; assay type: cell-based, Plasmodium falciparum; conditions: strain Dd2 wt
Method: as §1

CCCCCCc1ccc(-c2cc(=O)c3c(O)c(O)c(O)cc3o2)cc1 [FNDR-10132]
pIC50 ([1]; Plasmodium falciparum, DD2): 6.62 | Fold shift IC50 rel. Dd2 ([1]; strain Dd2 ELQ300): 0.7 | inhibition at 1 µM [2]: 1.6% | pIC50 (Dd2 DSM265 (Pfdhodh); Plasmodium falciparum): 6.58 | Fold shift IC50 rel. Dd2 (Dd2 DSM265 (Pfdhodh); strain Dd2 DSM265): 0.8 | Cytotoxicity Vero Cell (Vero cells): 174 µM | % Parasitemia ± S.D on Day 4 [3]: 8.5 ± 1.39 (4) % | % Parasitemia ± S.D on Day 7 [3]: 26.15 ± 8.70 (4) % | % Parasitemia ± S.D on Day 10 [3]: 24.07 ± 3.69 (3) % | % Parasitemia ± S.D on Day 14 [3]: 46.5 ± 4.2 (2) % | % Parasitemia ± S.D on Day 21 [3]: Dead | Mean Survival Time (MST) Days ± SD [3]: 13.5 ± 2.3 days | Day 4 % Suppression ([3]; Swiss mice): 44% | Cytotoxicity THP-1 (THP-1): 90 µM | stability in mouse liver microsomes (in words) ([4]; 60 min, ß-NADPH): moderate stability | Microsomal Stability (Mouse) ([4]; at 30 min, 1 µM, NADPH): 99% | Plasma Stability (Plasma stability; at 30 min): 87.61% | Plasma Stability (Plasma stability; at 45 min): 80.97% | pIC50 (Dd2 (wt); Plasmodium falciparum): 6.48 | Fold shift IC50 rel. Dd2 (Dd2 (wt)): 1.0
